Measurements published in patent publication US8487003B2, “Treatment of cancer by administration of perfluorooctanoic acid” (CXR Biosciences Limited, priority 2001, dated 2013).
pEC50: −log10 of the molar value.

Experiments:
male Fischer 344 rats = test: APFO in diet of male Fischer 344 rats for up to one year; type: in vivo, rat; settings: 300 ppm in diet
Experimental: Body weights were initially determined daily and then weekly. Food consumption was determined weekly. Clinical observations were made daily.
Rats were sacrificed at 1, 2, 7, 14, 28, 90, 182 and 365 days. There were 8 rats per group. At sacrifice blood was sampled by cardiac puncture and submitted for clinical chemistry.

C57BL/6J-ob/ob mice = test: Obese ob/ob mouse model, oral gavage daily for 14 days; type: in vivo
Experimental: (§1) The C57BL/6J-ob/ob mouse is an obese, leptin-deficient animal that is widely accepted as a model of obesity and diabetes. Age-paired, disease-free (lean) animals (C57BL/6J-+/+) were also included in the study to observe the ‘normal’ response.
(§2) One group of 10 ob/ob mice was also treated with vehicle (water) alone.
(§3) Twenty-four hours after the last dose the animals were killed by an increasing concentration of carbon dioxide. Blood was collected by cardiac puncture and plasma prepared and stored at −70° C. until analysed. Major tissues were weighed, sampled, flash frozen in liquid nitrogen and stored at −70° C.
(§4) Plasma was analysed for triglycerides, cholesterol and glucose using kits purchased from Sigma (Poole, Dorset). Concentrations of plasma insulin and leptin were determined using commercially available enzymeimmunoassay-based kits from Amersham Life Sciences and Crystalchem Inc., (Chicago) respectively. All assays were carried out as specified by the manufacturer.

C57BL/6J-+/+ mice = test: Lean disease-free +/+ mice, oral gavage daily for 14 days; type: in vivo, mouse; settings: 25 mg/kg/day
Experimental: as §1, §2, §3, §4

GK/Mol rats = test: Diabetic GK/Mol rat model, oral gavage daily for 14 days; type: in vivo
Experimental: (§5) The GK/Mol rat is a non-obese, diabetic animal that is widely accepted as a model of Type II diabetes. In order to measure the ‘normal’ response, non-diabetic Wistar rats were also used in the study.
(§6) One group of 10 GK/Mol rats was also treated with vehicle (water) alone.
as §3
(§7) Plasma was analysed for, triglycerides, cholesterol, glucose, insulin and leptin as described in section 1.1.1.

Wistar rats = test: Non-diabetic Wistar rats, oral gavage daily for 14 days; type: in vivo, rat
Experimental: as §5, §6, §3, §7

HT-29 cells = test: In vitro cytotoxicity (MTT), HT-29; type: cell-based, human; settings: HT-29, 4 hours exposure
Experimental: (§8) HT-29 cells (human colon tumour-derived), MCF7 cells (human breast cancer-derived) and HepG2 cells (human liver cancer-derived) were cultured in Dulbecco's Modified Eagles Medium (DMEM) supplemented with 10% heat-inactivated foetal calf serum, 2 mM L-glutamine, penicillin (50 IU/ml), streptomycin (50 μg/ml) and 1% non-essential amino acids. Cells were harvested by trypsinisation and diluted to 5×10^4 cells/ml, and 200 μl of cell suspension was plated into each well of a 96 well plate and allowed to attach overnight at 37° C. with 5% CO2. […] 20 μl of a 5 mg/1 m MTT solution was added to each well and the cells were incubated for 4 hours at 37° C. The medium was removed and 200 μl DMSO was added to dissolve formazan crystals. Plates were read at 570 nm and background at 690 nm was subtracted.

MCF7 cells = test: In vitro cytotoxicity (MTT), MCF7; type: cell-based, human; settings: MCF7, 4 hours exposure
Experimental: as §8

HepG2 cells = test: In vitro cytotoxicity (MTT), HepG2; type: cell-based, human; settings: HepG2, 4 hours exposure
Experimental: as §8

HT-29 xenograft = HT-29 xenograft model in nude mice; type: in vivo, nu/nu mice; settings: for lag phase of tumour growth: ip 3 times per week
Experimental: Athymic nude (nu/nu) mice from ICRF stock (HsdOla:ICRF-nu) were obtained from Clare Hall (Pofters Bar, UK). All animals were female and approximately 9 weeks old. Animals, housed in isolator cages and handled under laminar flow, were divided into one control group and two treatment groups, with 5 female mice per group for both the prophylactic and therapeutic schedules
HT-29 cells were cultured according to the conditions described in section 2.1.1. Cells were harvested, pooled by centrifugation and resuspended in 5 ml medium to which 5 ml Matrigel (basement membrane matrix) was added. 100 μl of cell suspension was injected subcutaneously into each flank of the mice (1.75×10^6 cells per flank).
The volume of the dosing solution was 10 ml/kg bodyweight. Control animals received an equivalent volume of water.
Animal bodyweights were recorded throughout the study. Tumour growth was measured 3 times per week using digital calipers and the volume was calculated using the formula:
Where d1=mean length (n=2) and d2=mean width (n=2). (NB, n=4 if tumour was an irregular shape).
The maximum permitted tumour volume, according to the terms of the Home Office license, was 1.44 cm^3. Results were expressed graphically for each time point as mean tumour volumes. Tumour weights were recorded at the end of the study, and tumour samples were either snap frozen in liquid nitrogen or fixed in formal saline for further analysis.

mouse PPAR alpha = molecular target: T1, mouse PPAR alpha (Mus musculus, UniProt P23204); test: Mouse PPAR alpha transactivation assay in COS-1 cells; type: cell-based; settings: luciferase reporter, 16 hours, read-out: EC50, activation of mouse PPAR alpha
T1 construct: expressed in transfected cells; host or cells: COS-1 cells
T1 sequence (P23204 1-468): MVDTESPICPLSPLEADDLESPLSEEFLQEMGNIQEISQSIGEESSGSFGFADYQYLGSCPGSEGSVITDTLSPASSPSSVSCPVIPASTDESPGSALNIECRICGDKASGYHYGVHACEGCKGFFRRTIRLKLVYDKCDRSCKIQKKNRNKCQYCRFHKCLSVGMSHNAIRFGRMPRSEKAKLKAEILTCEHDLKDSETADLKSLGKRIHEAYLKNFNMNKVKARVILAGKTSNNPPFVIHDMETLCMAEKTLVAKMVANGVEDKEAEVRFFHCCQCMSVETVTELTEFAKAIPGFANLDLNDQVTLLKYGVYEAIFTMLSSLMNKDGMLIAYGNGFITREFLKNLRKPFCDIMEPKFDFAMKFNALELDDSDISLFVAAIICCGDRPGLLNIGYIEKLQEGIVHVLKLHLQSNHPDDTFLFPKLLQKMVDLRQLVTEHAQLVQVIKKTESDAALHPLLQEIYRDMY

With `N.O=C(O)C(F)(F)C(F)(F)C(F)(F)C(F)(F)C(F)(F)C(F)(F)C(F)(F)F` [APFO, ammonium perfluorooctanoate] the “adverse clinical symptoms or changes in activity” value (male Fischer 344 rats) was “not accompanied by any adverse clinical symptoms”, the bodyweight gain (male Fischer 344 rats) was “marked reductions” and the plasma triglycerides (male Fischer 344 rats; 7 days and beyond) was “decreased”. For the same molecule, the “food consumption per rat, % of control values” (male Fischer 344 rats; after first week) was 80-90%, the plasma cholesterol concentration (male Fischer 344 rats; all time points (1-365 days)) was “decreased” and the plasma glucose concentration (male Fischer 344 rats; all time points (1-365 days)) was “decreased”. For the same molecule, the plasma insulin concentration (male Fischer 344 rats; all time points (1-365 days)) was “decreased”, the “decrease of food consumed per unit bodyweight” value (male Fischer 344 rats; first week) was “approximately 30%” and the “food consumption per rat, % of control consumption” value (male Fischer 344 rats; first week of treatment) was “approximately 50%”. For the same molecule, the “body weights lower than concurrent controls” value (male Fischer 344 rats; up to one year) was 25-30%, the “other adverse clinical observations” value (C57BL/6J-ob/ob mice; 5, 15, 25 mg/kg/day, 14 days) was “No other adverse clinical observations” and the “reduction in plasma insulin concentration” value (C57BL/6J-ob/ob mice; all treated ob/ob mice (5, 15, 25 mg/kg/day)) was “greater than 90%”. For the same molecule, the plasma triglyceride concentration (C57BL/6J-ob/ob mice; ob/ob, 5 mg/kg/day) was “no effect”, the “reduction of plasma glucose” value (C57BL/6J-ob/ob mice; ob/ob, 5 mg/kg/day) was “approximately 50%” and the bodyweight (C57BL/6J-ob/ob mice; ob/ob, 5 mg/kg/day, 14 days) was “unaffected”. For the same molecule, the “bodyweight loss over the study period” value (C57BL/6J-ob/ob mice; ob/ob, 15 mg/kg/day, 14 days) was 20%, the “reduction in plasma cholesterol concentration” value (C57BL/6J-ob/ob mice; ob/ob, 25 mg/kg/day) was ~30% and the “bodyweight loss as percentage of initial bodyweight” value (C57BL/6J-ob/ob mice; ob/ob, 25 mg/kg/day, 14 days) was 33%. For the same molecule, the “plasma triglyceride, % of control values” (C57BL/6J-ob/ob mice; ob/ob, 15 or 25 mg/kg/day) was 40%, the “plasma glucose, % of control values” (C57BL/6J-ob/ob mice; ob/ob, 15 or 25 mg/kg/day, dose-related) was “approximately 20%” and the “epididymal fat pad weight” value (C57BL/6J-ob/ob mice; ob/ob, dose-related) was “decreased”. For the same molecule, the “food consumption lower than control mice” value (C57BL/6J-ob/ob mice; ob/ob, high dose 25 mg/kg/day) was 76%, the “food consumption lower than control mice” value (C57BL/6J-ob/ob mice; ob/ob, intermediate dose 15 mg/kg/day) was 53% and the “reduction in plasma cholesterol concentration” value (C57BL/6J-ob/ob mice; ob/ob, low and mid dose levels (5, 15 mg/kg/day)) was “not evident”. The “food consumption lower than control mice” value (C57BL/6J-ob/ob mice; ob/ob, low dose 5 mg/kg/day) was 17%, the “epididymal fat pad weight” value (C57BL/6J-+/+ mice) was “decreased” and the “overall food consumption lower than +/+ controls” value (C57BL/6J-+/+ mice) was 31%. For the same molecule, the “plasma glucose, % of control values” (C57BL/6J-+/+ mice) was 55%, the plasma insulin concentration (C57BL/6J-+/+ mice) was “marked reduction” and the “plasma leptin concentration decreased” value (C57BL/6J-+/+ mice) was “to, or below the level of quantitation”. The “plasma triglycerides, % of control values” (C57BL/6J-+/+ mice) was 35%, the “reduction in plasma cholesterol concentration” value (C57BL/6J-+/+ mice) was ~30% and the “bodyweight loss as percentage of initial bodyweight” value (C57BL/6J-+/+ mice; 14 days) was 26%. The plasma leptin concentration (GK/Mol rats; GK/Mol rats) was “no differences”, the “plasma glucose, % of control values” (GK/Mol rats; GK/Mol, 30 mg/kg/day) was “about 85%” and the “total food consumption, % of control values” (GK/Mol rats; GK/Mol, 3, 10, 30 mg/kg, not related to dose) was 86-98%. For the same molecule, the “plasma insulin, % of control values” (GK/Mol rats; GK/Mol, dose-dependent reduction reaching this value) was “about 10%”, the “body weight gain, % of control values” (GK/Mol rats; GK/Mol, high dose 30 mg/kg) was 44% and the “body weight gain, % of control values” (GK/Mol rats; GK/Mol, low dose 3 mg/kg) was 90%. The “body weight gain, % of control values” (GK/Mol rats; GK/Mol, mid dose 10 mg/kg) was 71%, the bodyweight gain (Wistar rats; 30 mg/kg) was “no effect” and the “food consumption versus controls” value (Wistar rats; 30 mg/kg) was “no difference”. For the same molecule, the “plasma cholesterol, % of control values” (Wistar rats; 30 mg/kg) was 73%, the “plasma insulin, % of control values” (Wistar rats; 30 mg/kg) was “about 10%” and the “group mean plasma leptin lower than controls by” value (Wistar rats; 30 mg/kg/day) was “approximately 40%”. For the same molecule, the “concentration eliciting a cytotoxic effect” value (HT-29 cells) was “exceeding 500 μM”, the “concentration eliciting a cytotoxic effect” value (MCF7 cells) was “exceeding 500 μM” and the “concentration eliciting a cytotoxic effect” value (HepG2 cells) was “exceeding 500 μM”. The “animal body weight versus control” value (HT-29 xenograft; prophylactic and therapeutic groups, 15 and 25 mg/kg ip) was “no significant difference”, the “macroscopic appearance of tumours” value (HT-29 xenograft; prophylactic group, control tumours solid) was “fluid-filled” and the tumour volume course (HT-29 xenograft; prophylactic, 15 mg/kg ip) was “continued to increase”. For the same molecule, the “tumour weight smaller than in control animals” value (HT-29 xenograft; prophylactic, 15 mg/kg ip) was 22%, the “time after which tumour growth reached a plateau” value (HT-29 xenograft; prophylactic, 25 mg/kg ip) was 26 days and the “tumour weight smaller than in control animals” value (HT-29 xenograft; prophylactic, 25 mg/kg ip) was 58%. For the same molecule, the “lag phase of tumour growth” value (HT-29 xenograft; prophylactic, control 15 days) was 22 days, the “tumour weight smaller than controls” value (HT-29 xenograft; therapeutic, 15 mg/kg ip) was 45% and the “tumour weight smaller than controls” value (HT-29 xenograft; therapeutic, 25 mg/kg ip) was 37%. The “plateau of tumour growth” value (HT-29 xenograft; therapeutic, highest dose group 25 mg/kg, study incomplete) was “No plateau was reached”, the “lag phase of tumour growth” value (HT-29 xenograft; therapeutic, control 17 days) was 26 days and the pEC50 (mouse PPAR alpha) was 3.99.
